# Legend:
# [1] = In vitro permeability, Caco-2 model for oral absorption; format: in vitro ADME; conditions: human, apical to basolateral, 50 μM test compound, 37° C.
# Protocol: In vitro permeability was determined using the Caco-2 model for oral absorption. The methodology was adapted from standard published methods (Wang Z, Hop C. E., Leung K. H. and Pang J. (2000) J Mass Spectrom 35(1); 71-76). The Caco-2 monolayers were established in a Biocoat™ HTS fibrillar collagen 24 well multiwell insert system (1.0 μm, PET membrane, Corning 354803) in which 200,000 cells were seeded into each insert and maintained over 3 days before being utilised in the permeability assay. For the assay, 50 μM test compound is added to the apical side of the inserts and incubated for 1 hour at 37° C. on a shaking platform (120 rpm). Apical to basolateral transport was determined by measuring the test article in both compartments by LCMS following the 1 hour incubation. The integrity of the Caco-2 monolayers was confirmed by two methods, (i) comparison of pre- and post-experiment transepithelial electrical resistance (TEER) and, (ii) assessment of Lucifer Yellow flux.
# [2] = Intrinsic clearance in rat liver microsomes; format: in vitro ADME; conditions: rat liver microsomes 0.5 mg/mL, 5 μM test compound, 37° C.; read-out: rat liver microsome (Clint μL/min/mg protein)
# Protocol: (§1) Rat or human liver microsomes (0.5 mg/mL; Corning) were incubated with 5 μM test compound at 37° C. on a shaking platform (150 rpm). Samples were taken at 0, 6, 12, 18, 24 and 60 min and test compound concentrations were determined by LCMS against a calibration curve.
# [3] = molecular target: Human KLK1 (Homo sapiens (Human), UniProt P06870); assay: Determination of the IC50 for KLK1; format: biochemical; conditions: 25° C., substrate H-DVal-Leu-Arg-AFC
# Sequence of Human KLK1 (P06870 25-262): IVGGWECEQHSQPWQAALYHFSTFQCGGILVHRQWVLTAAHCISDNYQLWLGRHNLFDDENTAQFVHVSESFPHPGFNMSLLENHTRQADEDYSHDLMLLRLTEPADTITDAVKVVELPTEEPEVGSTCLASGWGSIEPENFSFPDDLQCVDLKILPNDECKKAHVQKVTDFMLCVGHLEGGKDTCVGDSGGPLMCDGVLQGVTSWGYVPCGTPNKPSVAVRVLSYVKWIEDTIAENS
# Protocol: (§2) Human KLK1 (Callbiochem) was incubated at 25° C. with the fluorogenic substrate H-DVal-Leu-Arg-AFC and various concentrations of the test compound. Residual enzyme activity (initial rate of reaction) was determined by measuring the change in […] at 410 nm and the IC50 value for the test compound was determined.
# [4] = molecular target: Human plasma kallikrein (Homo sapiens (Human), UniProt P03952); assay: Determination of the IC50 for plasma kallikrein; format: biochemical; conditions: 25° C., substrate H-DPro-Phe-Arg-AFC; read-out: IC50 (human PKal)
# Sequence of Human plasma kallikrein (P03952 391-638): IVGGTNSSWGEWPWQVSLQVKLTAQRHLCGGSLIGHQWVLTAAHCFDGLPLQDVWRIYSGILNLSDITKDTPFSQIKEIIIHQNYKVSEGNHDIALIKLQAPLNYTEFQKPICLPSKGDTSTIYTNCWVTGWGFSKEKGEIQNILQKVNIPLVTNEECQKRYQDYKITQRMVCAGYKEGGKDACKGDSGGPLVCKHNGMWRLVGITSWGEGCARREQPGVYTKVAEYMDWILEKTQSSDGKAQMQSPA
# Sequence of Human plasma kallikrein (P03952 20-390): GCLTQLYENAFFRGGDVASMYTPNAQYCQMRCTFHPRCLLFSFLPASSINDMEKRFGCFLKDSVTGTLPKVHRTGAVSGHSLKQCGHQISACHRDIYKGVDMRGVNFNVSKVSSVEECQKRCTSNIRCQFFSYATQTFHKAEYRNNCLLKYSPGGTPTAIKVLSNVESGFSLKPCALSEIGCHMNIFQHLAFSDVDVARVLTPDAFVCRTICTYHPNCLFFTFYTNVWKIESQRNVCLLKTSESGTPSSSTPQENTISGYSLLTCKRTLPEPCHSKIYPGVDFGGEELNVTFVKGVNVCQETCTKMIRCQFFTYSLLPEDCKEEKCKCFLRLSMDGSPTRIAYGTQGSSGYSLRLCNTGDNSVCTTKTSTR
# Protocol: as §2, with “plasma kallikrein (Protogen)” for “KLK1 (Callbiochem)”, “H-DPro-Phe-Arg-AFC” for “H-DVal-Leu-Arg-AFC”
# [5] = molecular target: Human FXIa (Homo sapiens (Human), UniProt P03951); assay: Determination of the % inhibition / IC50 for FXIa; format: biochemical; conditions: for IC50: 25° C., substrate Z-Gly-Pro-Arg-AFC
# Sequence of Human FXIa (P03951 388-625): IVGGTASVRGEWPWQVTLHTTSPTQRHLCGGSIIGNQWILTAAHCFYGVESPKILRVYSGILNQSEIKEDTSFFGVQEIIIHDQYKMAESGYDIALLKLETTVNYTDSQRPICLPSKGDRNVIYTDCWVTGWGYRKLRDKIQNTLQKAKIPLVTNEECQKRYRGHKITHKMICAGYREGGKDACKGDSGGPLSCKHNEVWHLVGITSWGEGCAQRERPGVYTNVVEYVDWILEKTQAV
# Sequence of Human FXIa (P03951 19-387): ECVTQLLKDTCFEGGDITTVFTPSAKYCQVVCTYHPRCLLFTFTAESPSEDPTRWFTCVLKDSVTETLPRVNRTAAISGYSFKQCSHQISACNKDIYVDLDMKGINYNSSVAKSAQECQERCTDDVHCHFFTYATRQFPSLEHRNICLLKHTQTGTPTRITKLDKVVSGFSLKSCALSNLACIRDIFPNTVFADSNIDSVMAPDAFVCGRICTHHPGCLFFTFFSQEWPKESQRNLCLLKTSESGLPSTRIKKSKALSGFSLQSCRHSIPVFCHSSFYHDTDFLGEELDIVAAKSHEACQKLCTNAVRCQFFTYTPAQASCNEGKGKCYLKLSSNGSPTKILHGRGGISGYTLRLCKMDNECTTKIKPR
# Protocol: FXIa inhibitory activity in vitro was determined using standard published methods (see e.g. Johansen et al., Int. J. Tiss. Reac. 1986, 8, 185; Shori et al., Biochem. Pharmacol., 1992, 43, 1209; Sturzebecher et al., Biol. Chem. Hoppe-Seyler, 1992, 373, 1025). […]
# [6] = molecular target: Human Factor XIIa (Homo sapiens (Human), UniProt P00748); assay: Factor XIIa inhibitory activity in vitro; format: biochemical; conditions: 25° C., substrate H-DPro-Phe-Arg-AFC; read-out: IC50 (human FXIIa)
# Sequence of Human Factor XIIa (P00748 373-615): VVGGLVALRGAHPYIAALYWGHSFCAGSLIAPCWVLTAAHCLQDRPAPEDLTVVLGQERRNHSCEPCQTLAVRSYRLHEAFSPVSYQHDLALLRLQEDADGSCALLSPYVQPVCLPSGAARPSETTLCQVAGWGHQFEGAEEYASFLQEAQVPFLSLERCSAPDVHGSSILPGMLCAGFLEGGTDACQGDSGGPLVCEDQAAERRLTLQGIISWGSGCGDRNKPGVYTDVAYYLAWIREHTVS
# Protocol: as §2, with “Factor XIIa (Enzyme Research Laboratories)” for “KLK1 (Callbiochem)”, “H-DPro-Phe-Arg-AFC” for “H-DVal-Leu-Arg-AFC”
# [7] = Intrinsic clearance in human liver microsomes; format: in vitro ADME; conditions: human liver microsomes 0.5 mg/mL, 5 μM test compound, 37° C.; read-out: Human liver microsome (Clint μL/min/mg protein)
# Protocol: as §1
Structure (SMILES),"Papp at 1 h, 50 μM [1] [×10⁻⁶ cm/s]",microsomal CLint at 5 μM [2] [µL/min/mg],IC50 [3] [µM],IC50 [4] [µM],IC50 [5] [µM],IC50 [6] [µM],microsomal CLint at 5 μM [7] [µL/min/mg],"inhibition at 40 µM ([5]; 40 μM test compound, read-out: % Inhibition @ 40 μM (human FXIa)) [%]"
"COCc1nn(Cc2ccc(Cn3cc(C)cn3)cc2)cc1C(=O)NCc1nccc(OC)c1F [Example 1, N-[(3-fluoro-4-methoxypyridin-2-yl)methyl]-3-(methoxymethyl)-1-({4-[(4-methylpyrazol-1-yl)methyl]phenyl}methyl)pyrazole-4-carboxamide]",28,52,> 40,0.0261,> 40,> 40,33,
"COc1ccnc(CNC(=O)c2cn(Cc3ccc(Cn4ccccc4=O)cc3)nc2N(C)C)c1F [Example 7, 3-(dimethylamino)-N-[(3-fluoro-4-methoxypyridin-2-yl)methyl]-1-({4-[(2-oxopyridin-1-yl)methyl]phenyl}methyl)pyrazole-4-carboxamide]",10,8,> 40,0.018,> 40,> 40,22,
"COCc1nn(Cc2ccc(Cn3ccccc3=O)cc2)cc1C(=O)NCc1c(C(N)=O)ccc(OC)c1F [Example 42, N-[(6-carbamoyl-2-fluoro-3-methoxyphenyl)methyl]-3-(methoxymethyl)-1-({4-[(2-oxopyridin-1-yl)methyl]phenyl}methyl)pyrazole-4-carboxamide]",4,11,> 4,0.0036,> 40,> 4,8,
"COc1ccc(C#N)c(CNC(=O)c2cn(Cc3ccc(Cn4ccccc4=O)cc3)nc2N(C)C)c1F [Example 44, N-[(6-cyano-2-fluoro-3-methoxyphenyl)methyl]-3-(dimethylamino)-1-({4-[(2-oxopyridin-1-yl)methyl]phenyl}methyl)pyrazole-4-carboxamide]",17,101,> 80,0.0088,> 40,> 40,162,32
"COCc1nn(Cc2ccc(Cn3ccccc3=O)cc2)cc1C(=O)NCc1cc(F)ccc1-n1cnnn1 [Example 49, N-{[5-fluoro-2-(1,2,3,4-tetrazol-1-yl)phenyl]methyl}-3-(methoxymethyl)-1-({4-[(2-oxopyridin-1-yl)methyl]phenyl}methyl)pyrazole-4-carboxamide]",6,36,> 4,0.0159,> 40,> 4,18,
"COCc1nn(Cc2ccc(Cn3ccccc3=O)cn2)cc1C(=O)NCc1c(C#N)ccc(OC)c1F [Example 51, N-[(6-cyano-2-fluoro-3-methoxyphenyl)methyl]-3-(methoxymethyl)-1-({5-[(2-oxopyridin-1-yl)methyl]pyridin-2-yl}methyl)pyrazole-4-carboxamide]",3,25,> 4,0.0213,> 40,> 4,30,
"COCc1nn(Cc2ccc(Cn3ccccc3=O)nc2)cc1C(=O)NCc1c(C#N)ccc(OC)c1F [Example 52, N-[(6-cyano-2-fluoro-3-methoxyphenyl)methyl]-3-(methoxymethyl)-1-({6-[(2-oxopyridin-1-yl)methyl]pyridin-3-yl}methyl)pyrazole-4-carboxamide]",5,8,> 4,0.0064,> 40,> 4,16,
"COCc1nn(Cc2ccc(CN3CCCCC3=O)cc2)cc1C(=O)NCc1c(C#N)ccc(OC)c1F [Example 57, N-[(6-cyano-2-fluoro-3-methoxyphenyl)methyl]-3-(methoxymethyl)-1-({4-[(2-oxopiperidin-1-yl)methyl]phenyl}methyl)pyrazole-4-carboxamide]",,,> 40,0.0279,> 40,> 40,,
"COCc1nn(Cc2cnc(N3CCCC3)nc2)cc1C(=O)NCc1c(C#N)ccc(OC)c1F [Example 58, N-[(6-cyano-2-fluoro-3-methoxyphenyl)methyl]-3-(methoxymethyl)-1-{[2-(pyrrolidin-1-yl)pyrimidin-5-yl]methyl}pyrazole-4-carboxamide]",26,,> 40,0.057,8.5,> 40,,
"Nc1nn(Cc2ccc(Cn3ccccc3=O)cc2)cc1C(=O)NCc1cc(Cl)ccc1-n1cnnn1 [Example 71, 3-amino-N-{[5-chloro-2-(1,2,3,4-tetrazol-1-yl)phenyl]methyl}-1-({4-[(2-oxopyridin-1-yl)methyl]phenyl}methyl)pyrazole-4-carboxamide]",1,17,> 4,0.0003,4.6,> 4,17,
"COCc1nn(Cc2ccc(Cn3ccccc3=O)cc2)cc1C(=O)NCc1c(Cl)cccc1-n1cnnn1 [Example 73, N-{[2-chloro-6-(1,2,3,4-tetrazol-1-yl)phenyl]methyl}-3-(methoxymethyl)-1-({4-[(2-oxopyridin-1-yl)methyl]phenyl}methyl)pyrazole-4-carboxamide]",4,,> 4,0.0231,> 40,> 4,,
"COCc1nn(Cc2ccc(N3CCC(F)(F)C3)nc2)cc1C(=O)NCc1c(-n2cnnn2)ccc(OC)c1F [Example 87, 1-{[6-(3,3-difluoropyrrolidin-1-yl)pyridin-3-yl]methyl}-N-{[2-fluoro-3-methoxy-6-(1,2,3,4-tetrazol-1-yl)phenyl]methyl}-3-(methoxymethyl)pyrazole-4-carboxamide]",4,,> 40,0.0008,0.161,> 40,,
"COCc1nn(Cc2ccc(Cn3cccn3)cc2)cc1C(=O)NCc1cccc(Cl)c1 [Reference Example I, reference compound]",15,153,> 40,2.02,> 40,> 40,77,
"COCc1nn(Cc2ccc(Cn3cccn3)cc2)cc1C(=O)NCc1cccc(Cl)c1F [Reference Example J, reference compound]",12,187,> 40,2.87,> 40,> 40,110,
"COc1ccc(-n2cnnn2)c(CNC(=O)c2cnn(Cc3cnc(N4CCCC4)nc3)c2)c1F [Reference Example K, reference compound]",3,,> 40,0.002,0.076,> 40,,
